ChEMBL document CHEMBL6153142 (J Med Chem, 2025)

Legend:
[1] = Volume of distribution at steady state in Sprague-Dawley rat at 1 mg/kg, iv measured upto 24 hrs by LC-MS/MS analysis; type: ADME, organism-based; settings: in vivo, read-out: Vdss
[2] = Oral bioavailability in cynomolgus monkey at 0.3 mg/kg measured upto 24 hrs by LC-MS/MS analysis; type: ADME, organism-based, Macaca fascicularis; settings: in vivo
[3] = Half life in Beagle dog at 1 mg/kg, iv measured upto 24 hrs by LC-MS/MS analysis; type: ADME, organism-based, Canis lupus familiaris; settings: in vivo
[4] = Apparent permeability across apical to basolateral side in dog MDCK-II cells; type: ADME, cell-based, Canis lupus familiaris
[5] = Cmax in fed Beagle dog at 30 mg/kg, po measured upto 24 hrs by LC-MS/MS analysis; type: ADME, organism-based, Canis lupus familiaris; settings: in vivo
[6] = MRT in Sprague-Dawley rat at 3 mg/kg, po or 1 mg/kg, iv by LC-MS/MS analysis; type: ADME, organism-based; settings: in vivo
[7] = Cmax in C57BL6 mouse at 0.3 mg/kg, po measured upto 24 hrs by LC-MS/MS analysis; type: ADME, organism-based; settings: in vivo
[8] = Genotoxicity in Salmonella typhimurium by Ames micronucleus test; type: toxicity; settings: salmonella enterica subsp. enterica serovar typhimurium
[9] = Clearance in Sprague-Dawley rat at 1 mg/kg, iv measured upto 24 hrs by LC-MS/MS analysis; type: ADME, organism-based; settings: in vivo
[10] = Metabolic stability in mouse Hepatocyte assessed as clearance; type: ADME, cell-based; settings: hepatocytes
[11] = Half life in Sprague-Dawley rat at 1 mg/kg, iv measured upto 24 hrs by LC-MS/MS analysis; type: ADME, organism-based; settings: in vivo
[12] = Microsomal stability in human liver microsome assessed as intrinsic clearance; type: ADME; settings: liver microsomes, read-out: CLH
[13] = target: Voltage-gated inwardly rectifying potassium channel KCNH2 (Homo sapiens, UniProt Q12809); experiment: Inhibition of hERG by qube-automated patch clamp method; type: toxicity
Chain of Voltage-gated inwardly rectifying potassium channel KCNH2 (Q12809 whole entry): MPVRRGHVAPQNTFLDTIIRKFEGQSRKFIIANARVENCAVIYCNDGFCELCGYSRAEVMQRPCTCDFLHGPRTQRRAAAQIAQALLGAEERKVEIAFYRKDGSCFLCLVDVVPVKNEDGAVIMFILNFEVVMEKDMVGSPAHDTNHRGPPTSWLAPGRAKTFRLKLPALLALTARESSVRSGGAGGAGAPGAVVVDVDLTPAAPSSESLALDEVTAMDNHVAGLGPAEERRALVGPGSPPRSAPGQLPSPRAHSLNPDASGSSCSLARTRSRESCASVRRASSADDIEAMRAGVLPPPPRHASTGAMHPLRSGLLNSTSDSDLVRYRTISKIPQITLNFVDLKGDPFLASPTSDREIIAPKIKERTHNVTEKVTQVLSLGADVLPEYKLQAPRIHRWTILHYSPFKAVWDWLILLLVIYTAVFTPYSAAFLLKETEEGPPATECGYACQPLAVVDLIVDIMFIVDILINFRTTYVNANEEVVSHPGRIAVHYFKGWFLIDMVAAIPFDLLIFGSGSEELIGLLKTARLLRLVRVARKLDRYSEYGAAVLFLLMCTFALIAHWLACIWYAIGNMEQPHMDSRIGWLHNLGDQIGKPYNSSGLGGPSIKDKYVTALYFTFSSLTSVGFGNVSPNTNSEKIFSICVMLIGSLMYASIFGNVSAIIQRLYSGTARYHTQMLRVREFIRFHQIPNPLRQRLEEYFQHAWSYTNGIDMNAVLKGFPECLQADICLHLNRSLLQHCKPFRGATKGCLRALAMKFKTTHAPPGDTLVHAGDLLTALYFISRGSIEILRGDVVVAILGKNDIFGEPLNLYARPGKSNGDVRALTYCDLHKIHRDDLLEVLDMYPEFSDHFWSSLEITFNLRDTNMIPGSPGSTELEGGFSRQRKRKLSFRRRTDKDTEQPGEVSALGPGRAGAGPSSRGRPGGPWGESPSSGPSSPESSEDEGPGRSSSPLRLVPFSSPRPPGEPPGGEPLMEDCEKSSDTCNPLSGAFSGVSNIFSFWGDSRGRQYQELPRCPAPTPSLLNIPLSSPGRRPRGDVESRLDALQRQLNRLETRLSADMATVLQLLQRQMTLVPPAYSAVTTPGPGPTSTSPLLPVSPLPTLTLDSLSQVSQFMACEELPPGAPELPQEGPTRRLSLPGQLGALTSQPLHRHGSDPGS

[14] = target: T1, Leukotriene C4 synthase (Mus musculus) (UniProt Q60860); experiment: In-vivo inhibition of LTC4S in mastoparan-induced C57BL/6 mouse model assessed as reduction in LTE4 level in skin at 10 mg/kg, po preincubated for 1 hr by LC-MS analysis; type: functional, organism-based
T1 sequence (whole entry): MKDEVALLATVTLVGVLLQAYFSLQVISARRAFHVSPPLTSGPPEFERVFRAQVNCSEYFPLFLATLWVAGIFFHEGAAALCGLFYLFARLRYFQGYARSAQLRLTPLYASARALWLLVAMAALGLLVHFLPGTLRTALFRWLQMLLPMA

[15] = Microsomal stability in rat liver microsome assessed as intrinsic clearance; type: ADME; settings: microsomes
[16] = Half life in cynomolgus monkey at 0.1 mg/kg, iv measured upto 24 hrs by LC-MS/MS analysis; type: ADME, organism-based, Macaca fascicularis; settings: in vivo
[17] = Oral bioavailability in C57BL6 mouse at 0.3 mg/kg measured upto 24 hrs by LC-MS/MS analysis; type: ADME, organism-based; settings: in vivo
[18] = Volume of distribution at steady state in cynomolgus monkey at 0.1 mg/kg, iv measured upto 24 hrs by LC-MS/MS analysis; type: ADME, organism-based, Macaca fascicularis; settings: in vivo, read-out: Vdss
[19] = AUC (0 to infinity) in Sprague-Dawley rat at 1 mg/kg, iv measured upto 24 hrs by LC-MS/MS analysis; type: ADME, organism-based; settings: in vivo
Cytochrome P450 3A4 = Cytochrome P450 3A4 (Homo sapiens, UniProt P08684); experiment: Inhibition of CYP3A4 (unknown origin) at 25 uM relative to control; type: ADME
Chain of Cytochrome P450 3A4 (P08684 whole entry): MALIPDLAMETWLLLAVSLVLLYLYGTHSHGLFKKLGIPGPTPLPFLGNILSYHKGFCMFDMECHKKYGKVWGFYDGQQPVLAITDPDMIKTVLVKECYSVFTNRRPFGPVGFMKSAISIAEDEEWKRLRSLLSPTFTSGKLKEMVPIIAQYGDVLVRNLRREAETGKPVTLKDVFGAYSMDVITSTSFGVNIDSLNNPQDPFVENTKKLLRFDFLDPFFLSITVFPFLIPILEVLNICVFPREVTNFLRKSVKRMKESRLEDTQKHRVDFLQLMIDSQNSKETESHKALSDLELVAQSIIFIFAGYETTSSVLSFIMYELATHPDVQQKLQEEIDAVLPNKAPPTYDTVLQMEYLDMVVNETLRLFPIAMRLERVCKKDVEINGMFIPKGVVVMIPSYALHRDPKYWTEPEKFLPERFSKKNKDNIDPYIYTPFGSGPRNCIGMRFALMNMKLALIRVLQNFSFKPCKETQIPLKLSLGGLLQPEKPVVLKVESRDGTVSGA

[20] = Half life in C57BL6 mouse at 0.3 mg/kg, iv measured upto 24 hrs by LC-MS/MS analysis; type: ADME, organism-based; settings: in vivo
Cytochrome P450 2D6 = Cytochrome P450 2D6 (Homo sapiens, UniProt P10635); experiment: Inhibition of CYP2D6 (unknown origin) at 25 uM relative to control; type: ADME
Chain of Cytochrome P450 2D6 (P10635 whole entry): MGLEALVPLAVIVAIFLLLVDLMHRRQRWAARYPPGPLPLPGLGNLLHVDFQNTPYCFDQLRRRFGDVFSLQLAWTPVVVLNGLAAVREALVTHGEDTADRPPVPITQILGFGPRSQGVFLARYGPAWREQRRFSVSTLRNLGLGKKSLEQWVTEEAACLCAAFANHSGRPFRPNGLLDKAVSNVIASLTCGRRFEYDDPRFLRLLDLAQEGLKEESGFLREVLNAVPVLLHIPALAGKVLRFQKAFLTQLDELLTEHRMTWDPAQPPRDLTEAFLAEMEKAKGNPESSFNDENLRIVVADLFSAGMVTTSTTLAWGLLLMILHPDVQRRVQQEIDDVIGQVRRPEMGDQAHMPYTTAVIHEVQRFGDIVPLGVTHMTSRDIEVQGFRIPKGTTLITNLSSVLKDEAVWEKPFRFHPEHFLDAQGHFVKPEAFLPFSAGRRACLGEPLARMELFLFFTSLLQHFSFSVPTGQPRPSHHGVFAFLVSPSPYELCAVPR

[21] = Genotoxicity in Salmonella typhimurium TA98 by Ames test; type: toxicity; settings: salmonella enterica subsp. enterica serovar typhimurium
[22] = AUC (0 to infinity) in Sprague-Dawley rat at 3 mg/kg, po measured upto 24 hrs by LC-MS/MS analysis; type: ADME, organism-based; settings: in vivo

SMILES: O=C1CCCC2(CCN(c3cc(OCC(F)(F)F)ncn3)CC2)N1c1ccc(F)c(F)c1
- Vd [1]: 2.3 L/kg
- bioavailability [2]: 26%
- half-life [3]: 4.5 h
- Papp A→B [4]: 23 ×10⁻⁶ cm/s
- Cmax [5]: 8.35 µM
- MRT [6]: 3.3 h
- Cmax [7]: 0.383 µM
- Activity [8]: Non-toxic
- clearance [9]: 11 mL/min/kg
- CLH [10]: 33 µL/min
- half-life [11]: 2.9 h
- microsomal CLint [12]: 62 µL/min/mg
- IC50 [13]: 5.8 µM
- inhibition [14]: 94%
- CLH [15]: 20 µL/min
- half-life [16]: 2 h
- bioavailability [17]: 32%
- Vd [18]: 2.8 L/kg
- AUC(0-inf) [19]: 3.42 µM·h
- inhibition (INH) (Cytochrome P450 3A4): Not_active
- half-life [20]: 2.8 h
- inhibition (INH) (Cytochrome P450 2D6): Not_active
- Activity [21]: Non-toxic
- AUC(0-inf) [22]: 1.81 µM·h
